Results as given in US4061645A, “2-Trichloromethyl-5-methylsulfinyl-1,3,4-thiadiazole” (Schering Aktiengesellschaft, priority 1972, dated 1977).

Tested on: Asperqilus niger
Assay: Agar test (Example 7), Aspergillus
Type: cell-based
Conditions: 10 ppm; 5 days at 22° C; control 100
Protocol: (§1) The fungicidal action of the agents according to the invention was tested in artificial nutrient media against plant-pathogenic fungi in Petri dishes (agar test). The procedure was to sterilize the medium consisting of 2% malt extract and 1.5% agar-agar powder. Before the solidification of the medium, the active substances were added to it, mixing thoroughly, so that the medium received 10 parts of active substance per million (ppm). After the solidification of the medium, the latter was inoculated with a platinum dropper which contained 100 spores each of the fungi to be tested, and after five days at 22° C, an evaluation was made by measuring the diameter of the colonies in mm.

Row | SMILES | diameter of the colonies
1 | CS(=O)(=O)c1nnc(C(F)(F)F)s1 [Compound 1, 2-trifluoromethyl-5-methylsulfonyl-1,3,4-thiadiazole] | 0 mm
2 | CS(=O)(=O)c1nnc(C(Cl)(Cl)Cl)s1 [Compound 21, 2-trichloromethyl-5-methylsulfonyl-1,3,4-thiadiazole] | 0 mm
3 | CCCS(=O)(=O)c1nnc(C(Cl)Cl)s1 [Compound 19, 2-dichloromethyl-5-propylsulfonyl-1,3,4-thiadiazole] | 0 mm

Tested on: Stemphylium ilicis
Assay: Agar test (Example 7), Stemphylium
Type: cell-based
Conditions: 10 ppm; 5 days at 22° C; control 100
Protocol: as §1

Row | SMILES | diameter of the colonies
4 | CS(=O)(=O)c1nnc(C(F)(F)F)s1 [Compound 1, 2-trifluoromethyl-5-methylsulfonyl-1,3,4-thiadiazole] | 0 mm
5 | CS(=O)(=O)c1nnc(C(Cl)(Cl)Cl)s1 [Compound 21, 2-trichloromethyl-5-methylsulfonyl-1,3,4-thiadiazole] | 0 mm
6 | CCCS(=O)(=O)c1nnc(C(Cl)Cl)s1 [Compound 19, 2-dichloromethyl-5-propylsulfonyl-1,3,4-thiadiazole] | 0 mm

Tested on: Colletotrichum gloeosporioides
Assay: Agar test (Example 7), Colletotrichum
Type: cell-based
Conditions: 10 ppm; 5 days at 22° C; control 100
Protocol: as §1

Row | SMILES | diameter of the colonies
7 | CS(=O)(=O)c1nnc(C(F)(F)F)s1 [Compound 1, 2-trifluoromethyl-5-methylsulfonyl-1,3,4-thiadiazole] | 0 mm
8 | CS(=O)(=O)c1nnc(C(Cl)(Cl)Cl)s1 [Compound 21, 2-trichloromethyl-5-methylsulfonyl-1,3,4-thiadiazole] | 0 mm
9 | CCCS(=O)(=O)c1nnc(C(Cl)Cl)s1 [Compound 19, 2-dichloromethyl-5-propylsulfonyl-1,3,4-thiadiazole] | 0 mm

Tested on: Helminthosporium sativum
Assay: Agar test (Example 7), Helminthosporium
Type: cell-based
Conditions: 10 ppm; 5 days at 22° C; control 100
Protocol: as §1

Row | SMILES | diameter of the colonies
10 | CS(=O)(=O)c1nnc(C(F)(F)F)s1 [Compound 1, 2-trifluoromethyl-5-methylsulfonyl-1,3,4-thiadiazole] | 0 mm
11 | CS(=O)(=O)c1nnc(C(Cl)(Cl)Cl)s1 [Compound 21, 2-trichloromethyl-5-methylsulfonyl-1,3,4-thiadiazole] | 0 mm
12 | CCCS(=O)(=O)c1nnc(C(Cl)Cl)s1 [Compound 19, 2-dichloromethyl-5-propylsulfonyl-1,3,4-thiadiazole] | 0 mm

Tested on: Fusarium oxysporum f. callistephi
Assay: Fusarium infested compost soil, Callistephus chinesis seedlings (Example 5)
Type: in vivo
Conditions: 50 mg active ingredient per liter of soil; of 4 seedlings
Source text: Steamed compost soil was inoculated with a spore suspension of Fusarium oxysporum f. callistephi. After homogeneous mixture of the products with the infested soil, the products were present as 20% powder preparations, and after a waiting period of 8 days, there were set out per concentration 4 seedlings of Callistephus chinesis, master aster "Sun Ray" as host plants.

Row | SMILES | Number of attacked plants after 3 weeks
13 | CS(=O)(=O)c1nnc(C(Cl)(Cl)Cl)s1 [Compound 21, 2-trichloromethyl-5-methylsulfonyl-1,3,4-thiadiazole] | 0
14 | CCCS(=O)(=O)c1nnc(C(Cl)Cl)s1 [Compound 19, 2-dichloromethyl-5-propylsulfonyl-1,3,4-thiadiazole] | 0

Same assay, conditions: 100 mg active ingredient per liter of soil; of 4 seedlings

Row | SMILES | Number of attacked plants after 3 weeks
15 | CS(=O)(=O)c1nnc(C(Cl)(Cl)Cl)s1 [Compound 21, 2-trichloromethyl-5-methylsulfonyl-1,3,4-thiadiazole] | 0
16 | CCCS(=O)(=O)c1nnc(C(Cl)Cl)s1 [Compound 19, 2-dichloromethyl-5-propylsulfonyl-1,3,4-thiadiazole] | 0

Tested on: Botrytis cinerea
Assay: Agar test (Example 7), Botrytis
Type: cell-based
Conditions: 10 ppm; 5 days at 22° C; control 100
Protocol: as §1

Row | SMILES | diameter of the colonies
17 | CS(=O)(=O)c1nnc(C(F)(F)F)s1 [Compound 1, 2-trifluoromethyl-5-methylsulfonyl-1,3,4-thiadiazole] | 0 mm
18 | CS(=O)(=O)c1nnc(C(Cl)(Cl)Cl)s1 [Compound 21, 2-trichloromethyl-5-methylsulfonyl-1,3,4-thiadiazole] | 0 mm
19 | CCCS(=O)(=O)c1nnc(C(Cl)Cl)s1 [Compound 19, 2-dichloromethyl-5-propylsulfonyl-1,3,4-thiadiazole] | 0 mm

Tested on: Pythium ultimum
Assay: Pythium ultimum infested compost soil, marrow peas (Example 2)
Type: in vivo
Conditions: 10 mg active ingr. per liter of soil; 3 weeks
Source text: Steamed compost soil was inoculated with mycelium of Pythium ultimum.

Row | SMILES | Weight of fresh plant
20 | CS(=O)(=O)c1nnc(C(F)(F)F)s1 [Compound 1, 2-trifluoromethyl-5-methylsulfonyl-1,3,4-thiadiazole] | 20 g

Same assay, conditions: 10 mg active ingr. per liter of soil; of 25 grains

Row | SMILES | Number of sound peas after 3 wks.
21 | CS(=O)(=O)c1nnc(C(F)(F)F)s1 [Compound 1, 2-trifluoromethyl-5-methylsulfonyl-1,3,4-thiadiazole] | 25

Same assay, conditions: 20 mg active ingr. per liter of soil; 3 weeks

Row | SMILES | Weight of fresh plant
22 | CS(=O)(=O)c1nnc(C(F)(F)F)s1 [Compound 1, 2-trifluoromethyl-5-methylsulfonyl-1,3,4-thiadiazole] | 19 g

Same assay, conditions: 20 mg active ingr. per liter of soil; of 25 grains

Row | SMILES | Number of sound peas after 3 wks.
23 | CS(=O)(=O)c1nnc(C(F)(F)F)s1 [Compound 1, 2-trifluoromethyl-5-methylsulfonyl-1,3,4-thiadiazole] | 22

Same assay, conditions: 30 mg active ingr. per liter of soil; 3 weeks

Row | SMILES | Weight of fresh plant
24 | CS(=O)(=O)c1nnc(C(F)(F)F)s1 [Compound 1, 2-trifluoromethyl-5-methylsulfonyl-1,3,4-thiadiazole] | 19 g

Same assay, conditions: 30 mg active ingr. per liter of soil; of 25 grains

Row | SMILES | Number of sound peas after 3 wks.
25 | CS(=O)(=O)c1nnc(C(F)(F)F)s1 [Compound 1, 2-trifluoromethyl-5-methylsulfonyl-1,3,4-thiadiazole] | 23

Tested on: Damping-off Fungi
Assay: Cotton seed disinfection, normal compost soil (Example 6)
Type: in vivo
Conditions: 100 mg active ingr. per kg of seed; 10% formulation; 15 days
Protocol: Cotton seeds disinfected with 10% formulations were seeded in normal compost soil (Damping-off Fungi), 25 grains per concentration. After a cultivation time of 15 days at 22°-25° C, the number of germinated sound cotton seedlings and their weight as fresh plants were determined.

Row | SMILES | Sound plants in % | Weight of fresh plant
26 | CS(=O)(=O)c1nnc(C(Cl)(Cl)Cl)s1 [Compound 21, 2-trichloromethyl-5-methylsulfonyl-1,3,4-thiadiazole] | 100% | 33 g

Tested on: Rhizoctonia solani
Assay: Limit concentration of soil-fungicidal effectiveness, Rhizoctonia solani, infested soil seeded with peas (Example 1)
Type: in vivo
Conditions: soil, 480 h, 20 to 23 days, 22°-25° C, read-out: Limit concentration of the fungicidal effectiveness
Protocol: Limit concentrations of the soil-fungicidal effectiveness at homogeneous mixture of the products with the infested soil. Basic condition in the evaluation are a sound root formation without fungus necroses and germination of the seed of at least 90% compared with the result obtained in steamed soil. Per concentration there were seeded 25 grains of peas of the variety "Miracle of Kelvedon" (marrow pea) without a waiting period. The cultivation time in the tests was 20 to 23 days at a temperature of 22°-25° C. Four commercial products were included in the test series.
Rhizoctania solani: -- Steamed compost soil was inoculated with mycelium of Rhizoctonia solani.

Row | SMILES | minimal effective concentration
27 | CS(=O)(=O)c1nnc(C(F)(F)F)s1 [Compound 1, 2-trifluoromethyl-5-methylsulfonyl-1,3,4-thiadiazole] | 25 µg/mL
28 | CS(=O)(=O)c1nnc(C(Cl)(Cl)Cl)s1 [Compound 21, 2-trichloromethyl-5-methylsulfonyl-1,3,4-thiadiazole] | 10 µg/mL
29 | CCCS(=O)(=O)c1nnc(C(Cl)Cl)s1 [Compound 19, 2-dichloromethyl-5-propylsulfonyl-1,3,4-thiadiazole] | 50 µg/mL

Tested on: Rhizoctonia solani
Assay: Rhizoctonia solani infested compost soil, marrow peas (Example 3)
Type: in vivo
Conditions: 10 mg active ingr. per liter of soil; 3 weeks
Source text: Steamed compost soil was inoculated with mycelium of Rhizoctonia solani. After homogeneous mixture of the products with the infested soil, the products were present in the form of 20% powder preparations, the seeding of 25 grains of marrow peas of the variety "Miracle of Kelvedon" per concentration was effected without waiting period in clay dishes holding 1 liter of soil. The table lists the number of germinated sound peas, the weight of the fresh plant, and a root evaluation after a cultivation period of three weeks at 22°-25° C.

Row | SMILES | Weight of fresh plant
30 | CS(=O)(=O)c1nnc(C(Cl)(Cl)Cl)s1 [Compound 21, 2-trichloromethyl-5-methylsulfonyl-1,3,4-thiadiazole] | 11 g

Same assay, conditions: 10 mg active ingr. per liter of soil; of 25 grains

Row | SMILES | Number of sound peas after 3 wks.
31 | CS(=O)(=O)c1nnc(C(Cl)(Cl)Cl)s1 [Compound 21, 2-trichloromethyl-5-methylsulfonyl-1,3,4-thiadiazole] | 17

Same assay, conditions: 20 mg active ingr. per liter of soil; 3 weeks

Row | SMILES | Weight of fresh plant
32 | CS(=O)(=O)c1nnc(C(Cl)(Cl)Cl)s1 [Compound 21, 2-trichloromethyl-5-methylsulfonyl-1,3,4-thiadiazole] | 17 g

Same assay, conditions: 20 mg active ingr. per liter of soil; of 25 grains

Row | SMILES | Number of sound peas after 3 wks.
33 | CS(=O)(=O)c1nnc(C(Cl)(Cl)Cl)s1 [Compound 21, 2-trichloromethyl-5-methylsulfonyl-1,3,4-thiadiazole] | 24

Same assay, conditions: 30 mg active ingr. per liter of soil; 3 weeks

Row | SMILES | Weight of fresh plant
34 | CS(=O)(=O)c1nnc(C(Cl)(Cl)Cl)s1 [Compound 21, 2-trichloromethyl-5-methylsulfonyl-1,3,4-thiadiazole] | 17 g

Same assay, conditions: 30 mg active ingr. per liter of soil; of 25 grains

Row | SMILES | Number of sound peas after 3 wks.
35 | CS(=O)(=O)c1nnc(C(Cl)(Cl)Cl)s1 [Compound 21, 2-trichloromethyl-5-methylsulfonyl-1,3,4-thiadiazole] | 24

Tested on: Thielaviopsis basicola
Assay: Control of Thielaviopsis basicola on tobacco (Example 10)
Type: in vivo
Parameters: key to Attack 0-5: 0: no attack; 1: very slight attack; 2: slight attack; 3: medium attack; 4: strong attack; 5: very strong attack
Conditions: 20 mg active ingr. per liter of soil; five weeks
Protocol: Control of Thielaviopsis basicola on tobacco.
A 10% powder preparation of 2-trifluoromethyl-5-methylsulfonyl-1,3,4-thiadiazole was homogeneously admixed to a soil heavily infested by Thielaviopsis basicola. After a reaction time of one week, tobacco seedlings of the variety Nicotiana tabacum var. "White Burley" were set out and cultivated for five weeks in the greenhouse at 22°-32° C. The attack and weight of the fresh plant are evident from the table.

Row | SMILES | Attack 0-5 | Weight of fresh plant (leaves and stems) | Weight of roots (air-dry)
36 | CS(=O)(=O)c1nnc(C(F)(F)F)s1 [Compound 1, 2-trifluoromethyl-5-methylsulfonyl-1,3,4-thiadiazole] | 0.5 | 115 g | 11 g

Same assay, conditions: 30 mg active ingr. per liter of soil; five weeks

Row | SMILES | Attack 0-5 | Weight of fresh plant (leaves and stems) | Weight of roots (air-dry)
37 | CS(=O)(=O)c1nnc(C(F)(F)F)s1 [Compound 1, 2-trifluoromethyl-5-methylsulfonyl-1,3,4-thiadiazole] | 0 | 118 g | 11 g

Same assay, conditions: 40 mg active ingr. per liter of soil; five weeks

Row | SMILES | Attack 0-5 | Weight of fresh plant (leaves and stems) | Weight of roots (air-dry)
38 | CS(=O)(=O)c1nnc(C(F)(F)F)s1 [Compound 1, 2-trifluoromethyl-5-methylsulfonyl-1,3,4-thiadiazole] | 0 | 104 g | 9 g

Tested on: Meloidogyne incognita
Assay: Nematocidal action, infested compost soil, cucumber seeds (Example 8)
Type: in vivo
Conditions: 40 mg per liter of soil; 30 days
Protocol: The products as 20% powder preparations were homogeneously admixed with a compost soil heavily infested by root gal nematodes. Without a waiting period, 20 cucumber seeds per concentration were seeded. After a cultivation time of 30 days at a temperature of 23°-25° C, the nematocidal action was evaluated by counting the root galls formed in the waterbath. The following table states the reduction of attack in percent. In the control, an average of 90 root galls per seedling had formed.

Row | SMILES | Nematocidal action in % (reduction of attack)
39 | CCCS(=O)(=O)c1nnc(C(Cl)Cl)s1 [Compound 19, 2-dichloromethyl-5-propylsulfonyl-1,3,4-thiadiazole] | 72%

Same assay, conditions: 60 mg per liter of soil; 30 days

Row | SMILES | Nematocidal action in % (reduction of attack)
40 | CCCS(=O)(=O)c1nnc(C(Cl)Cl)s1 [Compound 19, 2-dichloromethyl-5-propylsulfonyl-1,3,4-thiadiazole] | 82%
